This assay deals with T1, EPHA2 (Homo sapiens, UniProt P29317).
T1 construct: purchased Thermo Fisher Scientific (Life Technologies) SelectScreen
As to the kind of experiment: SelectScreen Z'LYTE. The format is biochemical. In short, it runs like this:
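SelectScreen broad panel; activity (Z'LYTE, Adapta) plus binding formats. ATP: Km app for CSF1R Z'LYTE; 10 for CAMK1 Adapta. Readout = % per kinase.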

Molecules are shown by their SMILES.

The term inhibition denotes the drop in the measured response relative to a control, in per cent. High values mean strong suppression, low ones little suppression.

T1 sequence (P29317 24-976): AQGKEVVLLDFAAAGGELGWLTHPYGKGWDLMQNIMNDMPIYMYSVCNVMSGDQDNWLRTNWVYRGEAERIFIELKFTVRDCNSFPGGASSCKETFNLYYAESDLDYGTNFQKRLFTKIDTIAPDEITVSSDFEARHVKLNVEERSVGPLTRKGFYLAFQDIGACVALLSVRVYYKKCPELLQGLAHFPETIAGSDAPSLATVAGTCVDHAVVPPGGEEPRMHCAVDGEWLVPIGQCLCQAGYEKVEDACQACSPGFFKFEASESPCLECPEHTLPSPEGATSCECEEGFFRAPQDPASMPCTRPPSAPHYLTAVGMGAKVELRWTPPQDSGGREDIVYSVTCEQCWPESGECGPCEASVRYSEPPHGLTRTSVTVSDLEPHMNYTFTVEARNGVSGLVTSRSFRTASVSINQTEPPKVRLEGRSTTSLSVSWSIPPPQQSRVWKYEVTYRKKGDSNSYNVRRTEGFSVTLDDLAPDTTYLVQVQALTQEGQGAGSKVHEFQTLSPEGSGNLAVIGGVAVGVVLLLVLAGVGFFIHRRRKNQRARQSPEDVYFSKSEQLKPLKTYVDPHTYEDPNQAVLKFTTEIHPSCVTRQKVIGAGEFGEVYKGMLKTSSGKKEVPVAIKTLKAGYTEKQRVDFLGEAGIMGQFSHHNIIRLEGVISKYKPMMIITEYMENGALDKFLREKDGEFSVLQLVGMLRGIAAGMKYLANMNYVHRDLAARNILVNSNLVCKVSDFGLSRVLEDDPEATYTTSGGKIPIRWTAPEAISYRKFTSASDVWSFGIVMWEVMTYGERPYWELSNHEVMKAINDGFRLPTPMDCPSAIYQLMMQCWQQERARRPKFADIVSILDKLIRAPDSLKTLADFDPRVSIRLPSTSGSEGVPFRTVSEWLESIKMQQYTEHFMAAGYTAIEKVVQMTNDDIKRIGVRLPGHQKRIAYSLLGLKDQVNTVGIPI

With `CN(C(=O)CN1CCOCC1)c1ccc2sc3c(-c4cccc5c(=O)cc(N6CC7CCC(C6)O7)oc45)cccc3c2c1` [NU5455], the inhibition at 1 µM is 4.8%.
